Residues, ends and D or L forms follow the SMILES beside them. *: point of attachment. Cbz = O=C(OCc1ccccc1)*
Target: mutant p53 (Homo sapiens, UniProt P04637, P309S/R273H)
Format: cell-based
Parameters: Mutant p53 protein levels in mutant p53-expressing cancer cells treated with NSC59984; endogenous in cells; host or cells: SW480, DLD-1, Hop92, RXF393; effect on NSC59984-mediated down-regulation of mutant p53: dose or concentration left out as unconfirmed
Conditions: SW480 cells, MG132 with NSC59984, 16 hr
Experimental: The primary antibodies indicated in the figures were incubated with the transferred PVDF in blocking buffer at 4° C. overnight. Antibody binding was detected on PVDF with appropriate IRDye-secondary antibodies (LI-COR Biosciences, USA) by the ODYSSEY infrared imaging system.

Compound: CC(C)C[C@@H](C=O)NC(=O)[C@H](CC(C)C)NC(=O)[C@H](CC(C)C)NC(=O)OCc1ccccc1 [MG132, reference compound] (Cbz-Leu-Leu-Leu-aldehyde)
- effect on NSC59984-mediated down-regulation of mutant p53: rescued
